In patent EP0533084A1, “Pharmaceutical compositions comprising natriuretic peptides or neutral endopeptidase inhibitors for treating and preventing myointimal proliferation” (SCHERING CORPORATION, priority 1991, dated 1993):

System: carotid artery intimal proliferation
Test: balloon catheter injury of the left carotid artery in spontaneously hypertensive rats; morphometric and DNA analyses of intimal proliferation 14 days post-injury
Assay type: in vivo, male spontaneously hypertensive rats
Conditions: SHR, means ± SEM
Method: Briefly, rats were anesthetized with Metofane (methoxyflurane) and a 2 Fr Fogarty embolectomy catheter was inserted into the left external carotid artery. The catheter was advanced 5 cm, inflated and retracted 3 times, turning the catheter 90^o each time. […] Animals were autopsied following exsanguination with ketamine (40 mg/kg) plus xylazine (10 mg/kg) i.m. anesthesia at specified timepoints following balloon injury.
Standard samples of the control right and balloon injured left carotid arteries were taken for DNA and morphometric analyses. […] The DNA results were expressed as the ratio of the left or ballooned carotid to the right control carotid. Three samples were taken for histology at 2.5 mm intervals cephalad from the DNA sample from each carotid artery and fixed in 4% paraformaldehyde containing 10% sucrose (wt/vol). Paraffin-embedded sections were stained with the Gomori trichrome-aldehyde fuchsin stain and computer-assisted morphometric analyses were performed using a Bioquant System IV image analyzer (R&M Biometrics Inc.). Morphometric measurements included: maximal intimal thickness (mm), intimal cross sectional area (mm²), and intimal cross sectional area/medial cross sectional area. […]

[1] = Exp. 5A, 10 mpk once a day, control see Exp. 1A

CC1(C)OCC(COC(=O)[C@H](Cc2ccccc2)N[C@@H](Cc2ccccc2)C(=O)NCCC(=O)O)O1 (stereo partly drawn) [compound A, N-[N-[(L)-[1-[(2,2-dimethyl-1,3-dioxolan-4-yl)methoxy]carbonyl]-2-phenylethyl]-L-phenylalanyl]-ß-alanine]
Carotid DNA (ballooned/ control) (Exp. 1, 90 mpk b.i.d.): 3.16 ±0.35
Intimal Area (Exp. 1, 90 mpk b.i.d.): 0.99 ±0.010 mm^2
Intimal Area/ Medial Area (Exp. 1, 90 mpk b.i.d.): 0.653 ±0.067
Maximal Intimal Thickness (Exp. 1, 90 mpk b.i.d.): 0.104 ±0.011 mm
Carotid DNA (ballooned/ control) (Exp. 1A, 90 mpk b.i.d.): 4.60 ±0.67
Intimal Area (Exp. 1A, 90 mpk b.i.d.): 0.099 ±0.010 mm^2
Intimal Area/ Medial Area (Exp. 1A, 90 mpk b.i.d.): 0.692 ±0.066
Maximal Intimal Thickness (Exp. 1A, 90 mpk b.i.d.): 0.110 ±0.010 mm

CCOC(=O)[C@H](CCSC)NC(=O)C(CSC(C)=O)Cc1ccccc1C (stereo partly drawn) [compound B, N-[2-acetylthiomethyl-3-(2-methylphenyl)-propionyl]-methionine ethyl ester]
Carotid DNA (ballooned/ control) (Exp. 2, 30 mpk b.i.d.): 3.47 ±0.40
Intimal Area (Exp. 2, 30 mpk b.i.d.): 0.071 ±0.010 mm^2
Intimal Area/ Medial Area (Exp. 2, 30 mpk b.i.d.): 0.441 ±0.052
Maximal Intimal Thickness (Exp. 2, 30 mpk b.i.d.): 0.085 ±0.009 mm
Carotid DNA (ballooned/ control) (Exp. 2A, 10 mpk b.i.d.): 3.12 ±0.22
Intimal Area (Exp. 2A, 10 mpk b.i.d.): 0.106 ±0.010 mm^2
Intimal Area/ Medial Area (Exp. 2A, 10 mpk b.i.d.): 0.719 ±0.062
Maximal Intimal Thickness (Exp. 2A, 10 mpk b.i.d.): 0.112 ±0.012 mm
Carotid DNA (ballooned/ control) (Exp. 4, 10 mpk b.i.d.): 4.38 ±0.73
Intimal Area (Exp. 4, 10 mpk b.i.d.): 0.085 ±0.009 mm^2
Intimal Area/ Medial Area (Exp. 4, 10 mpk b.i.d.): 0.592 ±0.067
Maximal Intimal Thickness (Exp. 4, 10 mpk b.i.d.): 0.095 ±0.012 mm

CCOC(=O)[C@H](CCc1ccccc1)N[C@@H](C)C(=O)N1CC2(C[C@H]1C(=O)O)SCCS2 [compound D, spirapril, reference compound]
Carotid DNA (ballooned/ control) [1]: 1.94 ±0.32
Intimal Area [1]: 0.064 ±0.005 mm^2
Intimal Area/ Medial Area [1]: 0.500 ±0.049
Maximal Intimal Thickness [1]: 0.082 ±0.010 mm
